# How the values were obtained:
# Assay type in all cases: in vivo
# Conditions in all cases: treatment dosage 320 g/ha
# [1] = test system: barnyard grass; experiment: Test Example 3: weedkilling efficacy through soil treatment; F: barnyard grass
# Method in brief: (§1)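 Crop and weed responses were judged three weeks after a uniform surface spray of the water-diluted emulsion at the given g/ha rate. Seeds sat beneath about 1.5 cm of sterilized diluvial soil, and boxes stood in a greenhouse at 25 to 30° C.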
# [2] = test system: Italian ryegrass; experiment: Test Example 3: weedkilling efficacy through soil treatment; I: Italian ryegrass
# Method in brief: as §1
# [3] = test system: barnyard grass; experiment: Test Example 1: weedkilling efficacy, preemergent weed treatment in the submerged state; A: barnyard grass
# Method in brief: (§2)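 Alluvial soil in Wagner pots flooded to 4 cm; barnyard grass, bulrush and oval-leafed pondweed seeds sown, then 2.5-leaf rice seedlings transplanted. Same day, emulsified compound diluted in water to set g/ha dosages and applied to water surface; greenhouse 25–30 °C, effect scored by criteria after 3 weeks.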
# [4] = test system: beet; experiment: Test Example 4: foliar treatment, effect on crop; f: beet
# Method in brief: (§3)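 Seeds are spot-sown into sterilized diluvial soil and covered with about 1.5 cm of soil. After 14 days' greenhouse growth at 25 to 30° C, plants are sprayed on stems and leaves with diluted emulsion at the stated g/ha rate, then scored at 3 weeks.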
# [5] = test system: oval-leafed pondweed; experiment: Test Example 1: weedkilling efficacy, preemergent weed treatment in the submerged state; C: oval-leafed pondweed
# Method in brief: as §2
# [6] = test system: beet; experiment: Test Example 3: soil treatment, effect on crop; f: beet
# Method in brief: as §1
# [7] = test system: wild oat; experiment: Test Example 4: weedkilling efficacy by foliar treatment; G: wild oat
# Method in brief: as §3
# [8] = test system: corn; experiment: Test Example 3: soil treatment, effect on crop; c: corn
# Method in brief: as §1
# [9] = test system: corn; experiment: Test Example 4: foliar treatment, effect on crop; c: corn
# Method in brief: as §3
# [10] = test system: soybean; experiment: Test Example 3: soil treatment, effect on crop; d: soybean
# Method in brief: as §1
# [11] = test system: fig-leafed goosefoot; experiment: Test Example 4: weedkilling efficacy by foliar treatment; M: fig-leafed goosefoot
# Method in brief: as §3
# [12] = test system: common wind-grass; experiment: Test Example 4: weedkilling efficacy by foliar treatment; J: common wind-grass
# Method in brief: as §3
# [13] = test system: green foxtail; experiment: Test Example 4: weedkilling efficacy by foliar treatment; E: green foxtail
# Method in brief: as §3
# [14] = test system: wild oat; experiment: Test Example 3: weedkilling efficacy through soil treatment; G: wild oat
# Method in brief: as §1
# [15] = test system: black-grass; experiment: Test Example 4: weedkilling efficacy by foliar treatment; H: black-grass
# Method in brief: as §3
# [16] = test system: rapeseed; experiment: Test Example 3: soil treatment, effect on crop; g: rapeseed
# Method in brief: as §1
# [17] = test system: chickweed; experiment: Test Example 4: weedkilling efficacy by foliar treatment; N: chickweed
# Method in brief: as §3
# [18] = test system: directly sown rice; experiment: Test Example 3: soil treatment, effect on crop; b: directly sown rice
# Method in brief: as §1
# [19] = test system: green foxtail; experiment: Test Example 3: weedkilling efficacy through soil treatment; E: green foxtail
# Method in brief: as §1
# [20] = test system: bulrush; experiment: Test Example 2: weedkilling efficacy, growth period weed treatment in the submerged state; B: bulrush
# Method in brief: (§4)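 First, alluvial soil in pots is flooded to 4 cm and mixed seed is sown. Next, plants grow in a greenhouse at 25 to 30° C until the 1-2 leaf stage. Then diluted emulsion is applied onto the water surface at the given g/ha rate, and injury is assessed after 3 weeks.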
# [21] = test system: Indian mallow; experiment: Test Example 4: weedkilling efficacy by foliar treatment; K: Indian mallow
# Method in brief: as §3
# [22] = test system: barnyard grass; experiment: Test Example 2: weedkilling efficacy, growth period weed treatment in the submerged state; A: barnyard grass
# Method in brief: as §4
# [23] = test system: catchweed; experiment: Test Example 4: weedkilling efficacy by foliar treatment; O: catchweed
# Method in brief: as §3
# [24] = test system: redroot pigweed; experiment: Test Example 3: weedkilling efficacy through soil treatment; L: redroot pigweed
# Method in brief: as §1
# [25] = test system: soybean; experiment: Test Example 4: foliar treatment, effect on crop; d: soybean
# Method in brief: as §3
# [26] = test system: wheat; experiment: Test Example 3: soil treatment, effect on crop; e: wheat
# Method in brief: as §1
# [27] = test system: bulrush; experiment: Test Example 1: weedkilling efficacy, preemergent weed treatment in the submerged state; B: bulrush
# Method in brief: as §2
# [28] = test system: Indian mallow; experiment: Test Example 3: weedkilling efficacy through soil treatment; K: Indian mallow
# Method in brief: as §1
# [29] = test system: Italian ryegrass; experiment: Test Example 4: weedkilling efficacy by foliar treatment; I: Italian ryegrass
# Method in brief: as §3
# [30] = test system: oval-leafed pondweed; experiment: Test Example 2: weedkilling efficacy, growth period weed treatment in the submerged state; C: oval-leafed pondweed
# Method in brief: as §4
# [31] = test system: chickweed; experiment: Test Example 3: weedkilling efficacy through soil treatment; N: chickweed
# Method in brief: as §1
# [32] = test system: transplanted rice; experiment: Test Example 1: preemergent weed treatment in the submerged state, effect on crop; a: transplanted rice
# Method in brief: as §2
# [33] = test system: birds-eye speedwell; experiment: Test Example 4: weedkilling efficacy by foliar treatment; p: birds-eye speedwell
# Method in brief: as §3
# [34] = test system: crabgrass; experiment: Test Example 4: weedkilling efficacy by foliar treatment; D: crabgrass
# Method in brief: as §3
# [35] = test system: barnyard grass; experiment: Test Example 4: weedkilling efficacy by foliar treatment; F: barnyard grass
# Method in brief: as §3
# [36] = test system: redroot pigweed; experiment: Test Example 4: weedkilling efficacy by foliar treatment; L: redroot pigweed
# Method in brief: as §3
# [37] = test system: wheat; experiment: Test Example 4: foliar treatment, effect on crop; e: wheat
# Method in brief: as §3
# [38] = test system: black-grass; experiment: Test Example 3: weedkilling efficacy through soil treatment; H: black-grass
# Method in brief: as §1
# [39] = test system: catchweed; experiment: Test Example 3: weedkilling efficacy through soil treatment; O: catchweed
# Method in brief: as §1
# [40] = test system: common wind-grass; experiment: Test Example 3: weedkilling efficacy through soil treatment; J: common wind-grass
# Method in brief: as §1
# [41] = test system: crabgrass; experiment: Test Example 3: weedkilling efficacy through soil treatment; D: crabgrass
# Method in brief: as §1
# [42] = test system: birds-eye speedwell; experiment: Test Example 3: weedkilling efficacy through soil treatment; p: birds-eye speedwell
# Method in brief: as §1
# [43] = test system: directly sown rice; experiment: Test Example 4: foliar treatment, effect on crop; b: directly sown rice
# Method in brief: as §3
# [44] = test system: rapeseed; experiment: Test Example 4: foliar treatment, effect on crop; g: rapeseed
# Method in brief: as §3
smiles,measurement,setting,value
CCOc1cc(C(F)(F)F)cc(NC(=O)C(C)(C)N2COC(C)=C(c3ccccc3)C2=O)n1 [B-2-50],F (barnyard grass) weedkilling efficacy grade,[1],"4 (weed kill ratio 70% or more, less than 90%)"
same,I (Italian ryegrass) weedkilling efficacy grade,[2],"3 (weed kill ratio 40% or more, less than 70%)"
same,A (barnyard grass) weedkilling efficacy grade,[3],"5 (weed kill ratio 90% or more, (practically complete withering))"
same,f (beet) effect on crop grade,[4],0 (weed kill ratio 5% or less (practically no effect))
same,C (oval-leafed pondweed) weedkilling efficacy grade,[5],"5 (weed kill ratio 90% or more, (practically complete withering))"
same,f (beet) effect on crop grade,[6],0 (weed kill ratio 5% or less (practically no effect))
same,G (wild oat) weedkilling efficacy grade,[7],0 (weed kill ratio 5% or less (practically no effect))
same,c (corn) effect on crop grade,[8],"1 (weed kill ratio 5% or more, less than 20%)"
same,c (corn) effect on crop grade,[9],0 (weed kill ratio 5% or less (practically no effect))
same,d (soybean) effect on crop grade,[10],0 (weed kill ratio 5% or less (practically no effect))
same,M (fig-leafed goosefoot) weedkilling efficacy grade,[11],"3 (weed kill ratio 40% or more, less than 70%)"
same,J (common wind-grass) weedkilling efficacy grade,[12],"1 (weed kill ratio 5% or more, less than 20%)"
same,E (green foxtail) weedkilling efficacy grade,[13],"2 (weed kill ratio 20% or more, less than 40%)"
same,G (wild oat) weedkilling efficacy grade,[14],0 (weed kill ratio 5% or less (practically no effect))
same,H (black-grass) weedkilling efficacy grade,[15],"1 (weed kill ratio 5% or more, less than 20%)"
same,g (rapeseed) effect on crop grade,[16],0 (weed kill ratio 5% or less (practically no effect))
same,N (chickweed) weedkilling efficacy grade,[17],0 (weed kill ratio 5% or less (practically no effect))
same,b (directly sown rice) effect on crop grade,[18],"1 (weed kill ratio 5% or more, less than 20%)"
same,E (green foxtail) weedkilling efficacy grade,[19],"5 (weed kill ratio 90% or more, (practically complete withering))"
same,B (bulrush) weedkilling efficacy grade,[20],"4 (weed kill ratio 70% or more, less than 90%)"
same,K (Indian mallow) weedkilling efficacy grade,[21],"1 (weed kill ratio 5% or more, less than 20%)"
same,A (barnyard grass) weedkilling efficacy grade,[22],"5 (weed kill ratio 90% or more, (practically complete withering))"
same,O (catchweed) weedkilling efficacy grade,[23],0 (weed kill ratio 5% or less (practically no effect))
same,L (redroot pigweed) weedkilling efficacy grade,[24],"2 (weed kill ratio 20% or more, less than 40%)"
same,d (soybean) effect on crop grade,[25],0 (weed kill ratio 5% or less (practically no effect))
same,e (wheat) effect on crop grade,[26],0 (weed kill ratio 5% or less (practically no effect))
same,B (bulrush) weedkilling efficacy grade,[27],"5 (weed kill ratio 90% or more, (practically complete withering))"
same,K (Indian mallow) weedkilling efficacy grade,[28],0 (weed kill ratio 5% or less (practically no effect))
same,I (Italian ryegrass) weedkilling efficacy grade,[29],"1 (weed kill ratio 5% or more, less than 20%)"
same,C (oval-leafed pondweed) weedkilling efficacy grade,[30],"4 (weed kill ratio 70% or more, less than 90%)"
same,N (chickweed) weedkilling efficacy grade,[31],0 (weed kill ratio 5% or less (practically no effect))
same,a (transplanted rice) effect on crop grade,[32],0 (weed kill ratio 5% or less (practically no effect))
same,P (birds-eye speedwell) weedkilling efficacy grade,[33],0 (weed kill ratio 5% or less (practically no effect))
same,D (crabgrass) weedkilling efficacy grade,[34],"2 (weed kill ratio 20% or more, less than 40%)"
same,F (barnyard grass) weedkilling efficacy grade,[35],0 (weed kill ratio 5% or less (practically no effect))
same,L (redroot pigweed) weedkilling efficacy grade,[36],0 (weed kill ratio 5% or less (practically no effect))
same,e (wheat) effect on crop grade,[37],0 (weed kill ratio 5% or less (practically no effect))
same,H (black-grass) weedkilling efficacy grade,[38],"2 (weed kill ratio 20% or more, less than 40%)"
same,O (catchweed) weedkilling efficacy grade,[39],0 (weed kill ratio 5% or less (practically no effect))
same,J (common wind-grass) weedkilling efficacy grade,[40],"5 (weed kill ratio 90% or more, (practically complete withering))"
same,D (crabgrass) weedkilling efficacy grade,[41],"5 (weed kill ratio 90% or more, (practically complete withering))"
same,P (birds-eye speedwell) weedkilling efficacy grade,[42],0 (weed kill ratio 5% or less (practically no effect))
same,b (directly sown rice) effect on crop grade,[43],0 (weed kill ratio 5% or less (practically no effect))
same,g (rapeseed) effect on crop grade,[44],0 (weed kill ratio 5% or less (practically no effect))

# Reference: US9738634B2, “Heterocyclic amide compound and herbicide” (SYNGENTA PARTICIPATIONS AG, priority 2013, dated 2017)
